Test [1] addresses T1, human serum albumin (HSA) (Homo sapiens, UniProt P02768).
T1 construct: gene ALB
Description: intrinsic tryptophan fluorescence quenching titration, Langmuir isotherm fit, room temperature, pH […]. It is filed as binding.

The target of test [2] is T2, bovine serum albumin (BSA) (Bos taurus, UniProt P02769).
T2 construct: gene ALB
The description is as above. It is filed as binding.

T1 sequence (P02768 25-609): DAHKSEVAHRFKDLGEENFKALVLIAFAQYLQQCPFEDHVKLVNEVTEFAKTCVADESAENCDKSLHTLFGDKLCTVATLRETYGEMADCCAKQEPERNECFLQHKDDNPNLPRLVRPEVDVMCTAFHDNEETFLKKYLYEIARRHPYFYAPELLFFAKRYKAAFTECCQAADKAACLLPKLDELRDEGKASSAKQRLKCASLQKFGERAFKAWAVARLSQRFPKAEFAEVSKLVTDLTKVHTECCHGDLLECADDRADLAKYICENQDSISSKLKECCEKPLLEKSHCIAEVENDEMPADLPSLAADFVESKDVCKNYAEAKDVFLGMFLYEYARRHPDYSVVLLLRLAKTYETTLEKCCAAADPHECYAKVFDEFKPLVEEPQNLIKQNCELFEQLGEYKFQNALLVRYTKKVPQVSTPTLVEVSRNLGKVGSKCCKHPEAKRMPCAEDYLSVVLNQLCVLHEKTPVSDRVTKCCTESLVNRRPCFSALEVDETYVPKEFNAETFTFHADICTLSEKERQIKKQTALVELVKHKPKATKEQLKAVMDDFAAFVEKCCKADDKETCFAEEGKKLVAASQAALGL
T2 sequence (P02769 25-607): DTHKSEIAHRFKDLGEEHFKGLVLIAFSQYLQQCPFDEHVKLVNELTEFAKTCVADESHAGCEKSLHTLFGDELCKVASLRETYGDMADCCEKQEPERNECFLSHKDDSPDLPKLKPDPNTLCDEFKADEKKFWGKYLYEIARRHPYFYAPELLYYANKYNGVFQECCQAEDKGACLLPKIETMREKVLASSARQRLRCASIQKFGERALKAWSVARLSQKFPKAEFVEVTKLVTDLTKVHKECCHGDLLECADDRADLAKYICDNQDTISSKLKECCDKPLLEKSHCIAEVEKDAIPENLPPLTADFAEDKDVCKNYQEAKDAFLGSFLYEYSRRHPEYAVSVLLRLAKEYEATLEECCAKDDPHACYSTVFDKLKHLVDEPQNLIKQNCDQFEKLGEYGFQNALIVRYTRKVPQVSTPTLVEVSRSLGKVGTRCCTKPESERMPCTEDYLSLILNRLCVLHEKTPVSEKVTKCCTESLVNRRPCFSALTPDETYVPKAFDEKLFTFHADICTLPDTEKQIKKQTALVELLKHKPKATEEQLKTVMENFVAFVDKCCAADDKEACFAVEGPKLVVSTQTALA

In the case of `COC(=O)CCCNC(=O)c1ccc(N(CC(=O)OC(C)(C)C)c2ccc(OC)cc2)cc1` [compound 5, methyl 4-(4-((2-(tert-butoxy)-2-oxoethyl)(4-methoxyphenyl)amino)benzamido)butanoate], the Kd was 2.75 µM in test [1] and 3.85 µM in test [2].

As usually defined, the Kd is the concentration at which binding is half-saturated. A high value points to lower affinity.

Values taken from PMC4949196, “Binding interaction of a gamma-aminobutyric acid derivative with serum albumin: an insight by fluorescence and molecular modeling analysis” (SpringerPlus, 2016).
